From patent US9828350B2, “5,6-dihydro-2H-[1,4]oxazin-3-yl-amine derivatives useful as inhibitors of beta-secretase (BACE)” (Janssen Pharmaceutica NV, priority 2010, dated 2017)

Experiments:
[1] = test system: Aβ42; experiment: Demonstration of in vivo efficacy, brain Aβ42 lowering (ELISA); settings: mouse brain, 30 mpk, s.c., 4 h
From the text: To determine whether acute administration of an Aβ42 peptide lowering agent would reduce Aβ peptide levels in vivo, non-transgenic rodents, e.g. mice or rats were used. Animals treated with the Aβ peptide lowering agent were examined and compared to those untreated or treated with vehicle and brain levels of soluble Aβ42 and total Aβ were quantitated by standard techniques, for example, using ELISA.
A typical protocol for measuring Aβ42 lowering in vivo is shown but it is only one of many variations that could be used to optimize the levels of detectable Aβ. For example, Aβ peptide lowering compounds were formulated in 20% hydroxypropyl 3 cyclodextrin. The Aβ peptide lowering agents were administered as a single oral dose (p.o.) or a single subcutaneous dose (s.c.) to overnight fasted animals. After a certain time, usually 2 or 4 h (as indicated in Table 19), the animals were sacrificed and Aβ42 levels were analysed.
Blood was collected by decapitation and exsanguinations in EDTA-treated collection tubes. Blood was centrifuged at 1900 g for 10 minutes (min) at 4° C. and the plasma recovered and flash frozen for later analysis. The brain was removed from the cranium and hindbrain. The cerebellum was removed and the left and right hemisphere were separated. The left hemisphere was stored at −18° C. for quantitative analysis of test compound levels. The right hemisphere was rinsed with phosphate-buffered saline (PBS) buffer and immediately frozen on dry ice and stored at −80° C. until homogenization for biochemical assays.
Mouse brains from non-transgenic animals were resuspended in 8 volumes of 0.4% DEA (diethylamine)/50 mM NaCl containing protease inhibitors (Roche-11873580001 or 04693159001) per gram of tissue, e.g. for 0.158 g brain, add 1.264 ml of 0.4% DEA. All samples were homogenized in the FastPrep-24 system (MP Biomedicals) using lysing matrix D (MPBio #6913-100) at 6 m/s for 20 seconds. Homogenates were centrifuged at 221.300×g for 50 min. The resulting high speed supernatants were then transferred to fresh eppendorf tubes. Nine parts of supernatant were neutralized with 1 part 0.5 M Tris-HCl pH 6.8 and used to quantify Aβtotal and Aβ42.
To quantify the amount of Aβtotal and Aβ42 in the soluble fraction of the brain homogenates, Enzyme-Linked-Immunosorbent-Assays were used. Briefly, the standards (a dilution of synthetic Aβ1-40 and Aβ1-42, Bachem) were prepared in 1.5 ml Eppendorf tube in Ultraculture, with final concentrations ranging from 10000 to 0.3 pg/ml. The samples and standards were co-incubated with HRPO-labelled N-terminal antibody for Aβ42 detection and with the biotinylated mid-domain antibody 4G8 for Aβtotal detection. […] The plate was allowed to incubate overnight at 4° C. in order to allow formation of the antibody-amyloid complex. Following this incubation and subsequent wash steps the ELISA for Aβ42 quantification was finished by addition of Quanta Blu fluorogenic peroxidase substrate according to the manufacturer's instructions (Pierce Corp., Rockford, Ill.). A reading was performed after 10 to 15 min (excitation 320 nm/emission 420 nm).

[2] = test system: Abeta 1-37; settings: Beagle dog, single dose 20 mg/kg, at 24 h
Method: Single Dose Pharmacology in the Beagle Dog
Compound 86 was tested to evaluate the effect on the beta-amyloid profile in cerebrospinal fluid (CSF) of dogs after a single dose, in combination with pharmacokinetic (PK) follow up and limited safety evaluation. 6 Beagle dogs (3 male, 3 female) were dosed with vehicle (4 ml/kg of an aqueous suspension of 20% cyclodextrin and Tween) and 6 Beagle dogs (3 male, 3 female) were dosed with compound 86 (20 mg/kg in 2 ml/kg of an aqueous 20% cyclodextrin solution) on an empty stomach. CSF was taken in conscious animals directly from the lateral ventricle via a cannula which was screwed in the skull and covered with subcutaneous tissue and skin, before and at 4, 8 and 24 hours after dosing. 8 Hours after dosing the animals got access to their regular meal for 30 minutes. Blood was taken for PK follow up (0.5, 1, 2, 4, 8 and 24 hours) and at the time of the CSF sampling, samples for serum analysis were taken. An additional sample for serum analysis was taken 10 days after dosing. The CSF samples were used for measurement of Abeta 1-37, Abeta 1-38, Abeta 1-40 and Abeta 1-42.

[3] = biological target: T1, P-gp (Homo sapiens, UniProt P08183); experiment: Transepithelial transport of test compounds through LLC-MDR1 monolayers; type: in vitro ADME; settings: pig, LLC-PK1
T1 construct: expressed in transfected cells; host or cells: LLC-PK1 cells stably transduced with MDR1 (LLC-MDR1)
T1 sequence (P08183 whole entry): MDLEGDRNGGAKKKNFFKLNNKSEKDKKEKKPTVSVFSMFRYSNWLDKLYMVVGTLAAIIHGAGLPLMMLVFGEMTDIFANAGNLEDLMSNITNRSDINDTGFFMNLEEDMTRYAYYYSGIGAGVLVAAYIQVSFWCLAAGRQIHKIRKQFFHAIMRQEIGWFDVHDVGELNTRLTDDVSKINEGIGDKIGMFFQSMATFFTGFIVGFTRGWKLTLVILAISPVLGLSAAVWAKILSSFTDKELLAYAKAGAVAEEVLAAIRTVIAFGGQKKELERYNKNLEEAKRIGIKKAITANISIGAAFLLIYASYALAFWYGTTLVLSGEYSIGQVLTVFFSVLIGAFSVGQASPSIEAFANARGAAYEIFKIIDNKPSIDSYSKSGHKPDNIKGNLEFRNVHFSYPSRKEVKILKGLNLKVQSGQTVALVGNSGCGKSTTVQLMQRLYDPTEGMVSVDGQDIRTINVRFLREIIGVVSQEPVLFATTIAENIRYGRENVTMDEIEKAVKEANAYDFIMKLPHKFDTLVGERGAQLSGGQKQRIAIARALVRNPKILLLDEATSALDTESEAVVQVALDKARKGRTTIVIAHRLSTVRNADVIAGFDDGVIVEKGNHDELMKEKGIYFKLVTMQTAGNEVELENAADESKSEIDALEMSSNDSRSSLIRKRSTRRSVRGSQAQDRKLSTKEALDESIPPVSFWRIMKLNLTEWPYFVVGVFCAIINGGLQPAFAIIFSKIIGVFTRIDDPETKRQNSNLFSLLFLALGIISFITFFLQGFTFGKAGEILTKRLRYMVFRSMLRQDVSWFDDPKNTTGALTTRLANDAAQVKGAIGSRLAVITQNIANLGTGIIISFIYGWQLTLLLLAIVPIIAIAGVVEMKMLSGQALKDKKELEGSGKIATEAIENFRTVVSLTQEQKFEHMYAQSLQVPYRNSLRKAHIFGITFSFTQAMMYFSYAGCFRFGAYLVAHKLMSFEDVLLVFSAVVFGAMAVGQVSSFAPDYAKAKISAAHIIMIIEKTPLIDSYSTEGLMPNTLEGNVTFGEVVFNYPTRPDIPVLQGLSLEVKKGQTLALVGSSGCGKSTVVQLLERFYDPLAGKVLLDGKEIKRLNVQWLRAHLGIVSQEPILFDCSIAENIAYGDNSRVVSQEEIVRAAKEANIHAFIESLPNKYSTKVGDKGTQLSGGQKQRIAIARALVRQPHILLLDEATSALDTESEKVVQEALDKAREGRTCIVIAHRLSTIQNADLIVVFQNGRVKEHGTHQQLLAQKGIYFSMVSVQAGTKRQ
In short: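 LLC-PK1 cells stably transduced with human MDR1, grown 5 days on transwell inserts; compound at 1 μM applied apically or basolaterally (A→B, B→A) in OPTI-MEM with 1% BSA, 120 min at 37 °C, triplicate. Acceptor and donor sampled and quantified by LC-MS/MS; fluorescein checked monolayer integrity.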

[4] = biological target: recombinant BACE1 protein (Homo sapiens, UniProt P56817); experiment: Biochemical FRET based assay; settings: recombinant BACE1 1 μg/ml, 120 minutes at room temperature, pH 5.0; read-out: Biochemical FRET based assay pIC50 (converted)
Chain of recombinant BACE1 protein (P56817 46-501): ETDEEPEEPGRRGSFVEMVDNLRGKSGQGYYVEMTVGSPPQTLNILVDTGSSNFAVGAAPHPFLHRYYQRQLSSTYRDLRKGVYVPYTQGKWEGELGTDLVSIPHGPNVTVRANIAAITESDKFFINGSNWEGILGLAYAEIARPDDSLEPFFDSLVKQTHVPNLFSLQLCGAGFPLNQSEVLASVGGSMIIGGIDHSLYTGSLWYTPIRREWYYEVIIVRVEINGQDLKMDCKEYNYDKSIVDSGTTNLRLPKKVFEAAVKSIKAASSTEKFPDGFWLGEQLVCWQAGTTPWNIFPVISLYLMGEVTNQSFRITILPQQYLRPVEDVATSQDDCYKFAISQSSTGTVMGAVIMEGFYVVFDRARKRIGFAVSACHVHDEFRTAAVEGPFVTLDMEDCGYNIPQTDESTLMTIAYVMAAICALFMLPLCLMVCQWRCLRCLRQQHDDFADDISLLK
In short: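 Proteolysis was read as the rise in donor fluorescence (320 nm excitation, 405 nm emission) from T0 to T120, expressed in RFU. The reaction ran 120 minutes at room temperature at pH 5.0 in citrate buffer with 4% DMSO, using […] quenched Swedish APP peptide and 1 μg/ml BACE1.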

efflux ratio at 120 min, 1 μM ([3]; LLC-MDR1 monolayers, ratio of B to A and A to B permeation rates, read-out: BA/AB): 1.6
Papp A→B at 120 min, 1 μM ([3]; read-out: A to B (Apparent Permeability, Papp)): 13.2 ×10⁻⁶ cm/s
Papp B→A at 120 min, 1 μM ([3]; read-out: B to A (Apparent Permeability, Papp)): 20.9 ×10⁻⁶ cm/s
IC50 [4]: 38.9 nM
melting point: 157.7 °C
SMILES: C[C@]1(c2cccc(NC(=O)c3ccc(Cl)cn3)c2)N=C(N)CO[C@@H]1F (single isomer, unassigned) [Compound 86, (R*,R*)—N-[3-(5-amino-2-fluoro-3-methyl-3,6-dihydro-2H-1,4-oxazin-3-yl)phenyl]-5-chloropyridine-2-carboxamide]
Aβ42 (% Ctrl)_Mean [1]: 60 % Ctrl
decrease in Abeta 1-37 in CSF compared to own baseline [2]: 72%
